This is an account of results in publication PMC5116089, “Sulfheme formation during homocysteine S-oxygenation by catalase in cancers and neurodegenerative diseases” (Nature Communications, 2016).

Where two headings read alike, the source gives them in different places.

For assay [1], the target named is T1, Bovine liver catalase (Bos taurus, UniProt P00432).
T1 construct: Bovine liver catalase was also purchased from Sigma-Aldrich; purchased Sigma-Aldrich; host or cells: bovine liver
T1 sequence (P00432 2-527 limits assumed): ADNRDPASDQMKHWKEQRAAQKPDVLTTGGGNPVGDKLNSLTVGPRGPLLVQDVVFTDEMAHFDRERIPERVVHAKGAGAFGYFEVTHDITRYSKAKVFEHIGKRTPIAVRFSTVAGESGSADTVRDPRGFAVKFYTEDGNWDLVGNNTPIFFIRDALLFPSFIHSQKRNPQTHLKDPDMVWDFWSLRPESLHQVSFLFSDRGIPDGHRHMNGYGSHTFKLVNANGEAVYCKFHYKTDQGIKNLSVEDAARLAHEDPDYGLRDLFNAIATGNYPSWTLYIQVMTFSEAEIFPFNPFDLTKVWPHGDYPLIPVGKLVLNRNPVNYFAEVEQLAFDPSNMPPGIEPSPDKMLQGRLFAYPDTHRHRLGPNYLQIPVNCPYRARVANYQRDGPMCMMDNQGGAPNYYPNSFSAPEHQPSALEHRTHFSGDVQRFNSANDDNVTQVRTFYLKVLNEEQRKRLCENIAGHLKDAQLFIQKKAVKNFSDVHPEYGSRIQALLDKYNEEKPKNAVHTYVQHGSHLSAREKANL
The assay is described as follows: Catalase activity (H2O2 disappearance at 240 nm) as a function of thiol concentration. In kind it is biochemical. As to conditions: read-out: relative IC50 (CAT activity). On the procedure:
(§1) CAT activity was measured on an Uvikon 941 spectrophotometer equipped with a temperature controlled water bath (±1 °C) by following the disappearance of H2O2 at 240 nm over 30–120 s at 25 °C. Catalase activity was calculated based on the rate of decomposition of hydrogen peroxide, which is proportional to the reduction of the absorbance at 240 nm. Experiments were carried out in a 3 ml quartz cuvette containing 11.7 mM H2O2 in 50 mM KPi, pH 7.4±1 mM DTPA and the reaction was initiated by adding 0.3–0.6 pmoles of CAT. The effect of biological thiols on the activity of CAT under physiological conditions was determined from a solution of CAT (30–60 nM) preincubated at 25 °C for at least 120 min as a function thiol concentration (0–40 mM for HCys and Cys, 0–100 mM for GSH) in 50 mM KPi, pH 7.4, 1 mM DTPA. Control experiments (biological thiols alone) were also performed in parallel. In each case, 10 μl of the reaction mixture (biological thiols±CAT) was added to the cuvette containing the H2O2 solution to initiate the reaction. Similarly, the effect of biological thiols on the activity of CAT under pathological conditions was determined from a solution of CAT (30–60 nM) containing a 2.124±0.386 molar excess of iron that was preincubated with various concentrations of thiols (0–1 mM) for at least 120 min at 25 °C in 50 mM KP at pH 7.4. The relative half inhibitory concentration (IC50) values were obtained by plotting the relative activity of CAT (A, in per cent) as a function of the concentration of thiol-compounds (RSH) and by fitting the data with the following four parameter logistic equation: A=Amin+(Amax−Amin)/(1+([RSH]/IC50)^n), where Amax is the maximal activity of CAT (constrained at 100%), Amin is the minimum activity achieved at saturating concentration of RSH and n is the Hillslope that characterizes the slope of the curve at its midpoint. The inactivation rate (kinact, min^−1) was extracted from the time course of the inactivation of CAT bioactivity using a fixed concentration of HCys. Accordingly, a solution of CAT (3.5–5 μM) was incubated with 2 mM L-HCys in 50 mM KPi, pH 7.4, 1 mM DTPA. Aliquots (10 μl) were taken at intervals (0–480 min), diluted 1:50 in 50 mM KPi, pH 7.4, 1 mM DTPA and assayed for CAT activity as described above. Similar experiments were performed in the presence of DMPO, 5,5-dimethyl-1,3-cyclohexanedione (dimedone) or SOD at a final concentration of 100 mM, 4 mM or 40 U, respectively. kinact values were obtained by plotting the relative activity of CAT (A, in per cent) as a function of the incubation time and the data were fitted with an exponential decay function: A=A0+ΔA × e^−kinact × t, with A0 and ΔA (A0+ΔA=100%) the residual activity and the percentage of CAT inhibition when t→∞, respectively. The effect of NaSH on the consumption of H2O2 in cell lysates was determined from a solution of cell lysates (0.5–3 mg ml^−1) incubated on ice with various concentrations of NaSH (0–200 μM). The disappearance of H2O2 was then followed at 240 nm for 2–5 min at 25 °C after the addition of 20–25 μl of the reaction mixture in a 3 ml cuvette containing 11.7 mM H2O2 in 50 mM KPi, pH 7.4. The relative half inhibitory concentration (IC50) values for NaSH were obtained by plotting the relative rate of disappearance of H2O2 (ΔA240 nm/min) as a function of the concentration of NaSH and by fitting the data with an hyperbolic decay equation. All the experiments were performed at least in triplicate.

Assay [2] has as its target T1, Bovine liver catalase. Kind of assay: Comparative kinetic studies by ultraviolet-visible spectroscopy (compound II and Fe(II) sulfonium formation). It is filed as biochemical. As to conditions: CAT + 2 mM HCys, 1 mM DTPA, pH 7.4, with the additive named (dimedone 4 mM, BCN 0.1 mM, SOD 40 U). On the procedure: Ultraviolet–visible spectra were recorded on a Cary 300 Scan or an Uvikon 941 spectrophotometer equipped with a temperature equilibrating water bath (±1 °C). Spectral changes over time were recorded when CAT was incubated with L-HCys (0.2 or 2 mM), L-Cys (0.2, 2 or 9 mM) or GSH (1 or 30 mM) at 25 °C in a 1 ml quartz cuvette containing a solution of CAT (2.7–5.9 μM) in 50 mM KPi, pH 7.4±1 mM DTPA. Due to half-site reactivity of biological thiols with CAT, the data were recorded versus a blank containing half the concentrations of CAT used in the experiments, that is, a solution of 1.35–2.95 μM CAT in 50 mM KPi at pH 7.4±1 mM DTPA. Reactions were initiated by addition of the thiol-containing compounds. Comparative kinetic studies were performed by incubating CAT ([…] in the experiment, 1.35–1.5 μM in the blank) with 2 mM L-HCys in 50 mM KPi, pH 7.4, 1 mM DTPA with or without […], 5,5-dimethyl-1,3-cyclohexanedione (dimedone, 4 mM), BCN (0.1 mM) or SOD, 40 U). All the experiments were performed at least in duplicate.

The subject of the next assay is MDST8 cells. Kind of assay: H2O2 consumption in cell lysates as a function of NaSH concentration. It is filed as biochemical, human. As to conditions: MDST8 cell lysate; read-out: relative IC50 (rate of H2O2 consumption). On the procedure: as §1, with “Similar experiments were performed in the presence of DMPO, 5,5-dimethyl-1,3-cyclohexanedione (dimedone) or SOD at a final concentration of 100 mM, 4 mM or 40 U, respectively. kinact values were obtained by plotting the relative activity of CAT (A, in per cent) as a function of the incubation time and the data were fitted with an exponential decay function: A=A0+ΔA × e^−kinact × t, with A0 and ΔA (A0+ΔA=100%) the residual activity and the percentage of CAT inhibition when t→∞, respectively.” left out, “The disappearance of H2O2 was then followed at 240 nm for 2–5 min at 25 °C after the addition of 20–25 μl of the reaction mixture in a 3 ml cuvette containing 11.7 mM H2O2 in 50 mM KPi, pH 7.4. The relative half inhibitory concentration (IC50) values for NaSH were obtained by plotting the relative rate of disappearance of H2O2 (ΔA240 nm/min) as a function of the concentration of NaSH and by fitting the data with an hyperbolic decay equation. All the experiments were performed at least in triplicate.” left out

Another assay deals with HCT-15 cells. The assay is described as above. It is filed as biochemical, human. As to conditions: HCT-15 cell lysate; read-out: relative IC50 (rate of H2O2 consumption). The method, then:
as §1, with “Similar experiments were performed in the presence of DMPO, 5,5-dimethyl-1,3-cyclohexanedione (dimedone) or SOD at a final concentration of 100 mM, 4 mM or 40 U, respectively. kinact values were obtained by plotting the relative activity of CAT (A, in per cent) as a function of the incubation time and the data were fitted with an exponential decay function: A=A0+ΔA × e^−kinact × t, with A0 and ΔA (A0+ΔA=100%) the residual activity and the percentage of CAT inhibition when t→∞, respectively.” left out, “The disappearance of H2O2 was then followed at 240 nm for 2–5 min at 25 °C after the addition of 20–25 μl of the reaction mixture in a 3 ml cuvette containing 11.7 mM H2O2 in 50 mM KPi, pH 7.4. The relative half inhibitory concentration (IC50) values for NaSH were obtained by plotting the relative rate of disappearance of H2O2 (ΔA240 nm/min) as a function of the concentration of NaSH and by fitting the data with an hyperbolic decay equation. All the experiments were performed at least in triplicate.” left out

The mark [3] stands for this setting: +1 mM DTPA (physiological conditions), 50 mM phosphate buffer pH 7.4, 25 °C, n=3±s.d.
The mark [4] stands for this setting: iron 55–145 nM, −DTPA (pathological conditions), 50 mM phosphate buffer pH 7.4, 25 °C, n=3±s.d.

Regarding `N[C@@H](CS)C(=O)O` [Cys, cysteine], the IC50 was 590 ± 70 µM at Bovine liver catalase [1] (setting [3]); 69 ± 27 µM at Bovine liver catalase [1] (iron 55–145 nM, + 0.2 mM DTPA); 594 ± 67 µM on Bovine liver catalase [1] (iron 55–145 nM, + 1 mM DTPA); > 700 µM at Bovine liver catalase [1] (iron 55–145 nM, + DMPO); 66 ± 16 µM at Bovine liver catalase [1] (iron 55–145 nM, + SOD); 3.5 ± 0.3 µM on Bovine liver catalase [1] (setting [4]).
Take `N[C@@H](CCC(=O)N[C@@H](CS)C(=O)NCC(=O)O)C(=O)O` [GSH, glutathione]: the values for the concentration for half-maximal inhibition (IC50) on Bovine liver catalase [1] (setting [3]) and on Bovine liver catalase [1] (setting [4]) were 21200 ± 8500 µM and 55 ± 14 µM, respectively.
Consider `NC(CCS)C(=O)O` (stereo not shown) [HCys, homocysteine], for which the results for the IC50 at Bovine liver catalase [1] (setting [3]) and at Bovine liver catalase [1] (setting [4]) were 1440 ± 370 µM and 37 ± 3 µM, respectively. On Bovine liver catalase [2], the “Ultraviolet–visible spectroscopy kobs(6) (CAT–Fe(IV)=O formation)” value was 0.026 ± 0.003 min⁻¹.
Consider `[Na+].[SH-]` [NaSH], for which the concentration for half-maximal inhibition (IC50) in the assay on MDST8 cells was found to be 20.4 ± 4 µM; in the assay on HCT-15 cells, 5.8 ± 1.8 µM.
